What was measured:
potassium arsenate = compound: O=[As]([O-])(O)O.[K+] [potassium arsenate]; test: thermal stability z-score vs DMSO; higher = more thermally stabilized by treatment; conditions: HeLa; arsenate concentration 1 mM
Method: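 Cellular thermal proteome profiling in HeLa cells treated with 1 mM arsenate for 1 h (DMSO pretreatment), heated to ten temperatures (37-66.3 °C). Soluble protein was quantified by TMT mass spectrometry relative to DMSO controls; the thermal stability score was transformed to a z-score; mean of n = 3 experiments.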

lipoamide = compound: NC(=O)CCCCC1CCSS1 [lipoamide]; test: as above; conditions: HeLa, lipoamide concentration 100 µM
Method: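 Cellular thermal proteome profiling in HeLa cells. Cells were treated with 100 µM lipoamide for 1 h, with or without 1 mM arsenate for a further 1 h, then heated to ten temperatures (37-66.3 °C), and soluble protein was quantified by TMT mass spectrometry relative to 0.1% DMSO controls. The thermal stability score (sum of log2 fold changes minus the abundance score) was transformed to a z-score; mean of n = 3 experiments.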

[1] = arsenate co-treatment: 1 mM arsenate 1 h
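Also: each temperature applied for 3 min, abundance score taken as mean log2 fold change at the two lowest temperatures, z-score obtained by mean subtraction and division by SD.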

Sequence of UniProt Q9BWM7 (Q9BWM7 whole entry): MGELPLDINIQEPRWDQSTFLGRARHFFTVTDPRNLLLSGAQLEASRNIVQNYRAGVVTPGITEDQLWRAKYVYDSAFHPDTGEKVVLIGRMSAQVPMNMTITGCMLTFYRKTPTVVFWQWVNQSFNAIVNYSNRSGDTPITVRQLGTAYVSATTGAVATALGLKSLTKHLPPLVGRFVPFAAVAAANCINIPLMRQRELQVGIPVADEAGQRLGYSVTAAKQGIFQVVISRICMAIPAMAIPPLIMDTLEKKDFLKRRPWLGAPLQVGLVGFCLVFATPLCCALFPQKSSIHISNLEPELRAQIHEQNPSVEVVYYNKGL
Sequence of UniProt Q13464 (Q13464 whole entry, looked up): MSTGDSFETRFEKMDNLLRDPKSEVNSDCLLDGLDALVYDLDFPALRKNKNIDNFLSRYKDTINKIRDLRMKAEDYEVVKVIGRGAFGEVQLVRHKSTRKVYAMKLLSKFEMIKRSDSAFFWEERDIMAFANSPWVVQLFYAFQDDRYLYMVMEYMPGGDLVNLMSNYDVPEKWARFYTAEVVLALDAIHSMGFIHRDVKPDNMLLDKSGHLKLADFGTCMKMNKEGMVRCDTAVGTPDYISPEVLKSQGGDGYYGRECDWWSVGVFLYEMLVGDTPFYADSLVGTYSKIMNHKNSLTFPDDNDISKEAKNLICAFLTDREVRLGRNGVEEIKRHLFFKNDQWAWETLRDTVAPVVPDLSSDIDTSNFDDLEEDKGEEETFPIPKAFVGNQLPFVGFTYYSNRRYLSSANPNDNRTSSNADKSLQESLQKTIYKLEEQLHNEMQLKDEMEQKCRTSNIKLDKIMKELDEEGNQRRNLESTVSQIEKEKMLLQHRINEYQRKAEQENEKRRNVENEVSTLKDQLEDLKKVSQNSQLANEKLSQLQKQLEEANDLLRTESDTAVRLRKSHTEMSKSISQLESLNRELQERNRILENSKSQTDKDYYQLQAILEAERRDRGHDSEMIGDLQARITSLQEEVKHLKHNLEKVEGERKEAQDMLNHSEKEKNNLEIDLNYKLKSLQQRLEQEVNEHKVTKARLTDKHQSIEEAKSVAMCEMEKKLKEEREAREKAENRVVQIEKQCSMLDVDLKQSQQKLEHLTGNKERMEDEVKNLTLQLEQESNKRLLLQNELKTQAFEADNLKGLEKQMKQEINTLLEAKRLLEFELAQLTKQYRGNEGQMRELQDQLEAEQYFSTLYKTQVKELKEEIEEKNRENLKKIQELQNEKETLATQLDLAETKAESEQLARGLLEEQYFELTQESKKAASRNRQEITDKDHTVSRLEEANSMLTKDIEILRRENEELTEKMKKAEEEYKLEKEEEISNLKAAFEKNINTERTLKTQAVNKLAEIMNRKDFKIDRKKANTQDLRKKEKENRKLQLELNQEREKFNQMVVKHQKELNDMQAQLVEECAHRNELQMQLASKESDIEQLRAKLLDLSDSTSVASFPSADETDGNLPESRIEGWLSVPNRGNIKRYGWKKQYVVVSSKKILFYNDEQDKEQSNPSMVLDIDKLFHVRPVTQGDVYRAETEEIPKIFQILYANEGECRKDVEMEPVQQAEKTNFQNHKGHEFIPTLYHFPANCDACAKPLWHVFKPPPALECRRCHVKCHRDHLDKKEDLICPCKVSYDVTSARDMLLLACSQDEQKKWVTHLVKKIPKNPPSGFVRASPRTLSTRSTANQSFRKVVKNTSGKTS
Sequence of UniProt Q9HCS7 (Q9HCS7 whole entry): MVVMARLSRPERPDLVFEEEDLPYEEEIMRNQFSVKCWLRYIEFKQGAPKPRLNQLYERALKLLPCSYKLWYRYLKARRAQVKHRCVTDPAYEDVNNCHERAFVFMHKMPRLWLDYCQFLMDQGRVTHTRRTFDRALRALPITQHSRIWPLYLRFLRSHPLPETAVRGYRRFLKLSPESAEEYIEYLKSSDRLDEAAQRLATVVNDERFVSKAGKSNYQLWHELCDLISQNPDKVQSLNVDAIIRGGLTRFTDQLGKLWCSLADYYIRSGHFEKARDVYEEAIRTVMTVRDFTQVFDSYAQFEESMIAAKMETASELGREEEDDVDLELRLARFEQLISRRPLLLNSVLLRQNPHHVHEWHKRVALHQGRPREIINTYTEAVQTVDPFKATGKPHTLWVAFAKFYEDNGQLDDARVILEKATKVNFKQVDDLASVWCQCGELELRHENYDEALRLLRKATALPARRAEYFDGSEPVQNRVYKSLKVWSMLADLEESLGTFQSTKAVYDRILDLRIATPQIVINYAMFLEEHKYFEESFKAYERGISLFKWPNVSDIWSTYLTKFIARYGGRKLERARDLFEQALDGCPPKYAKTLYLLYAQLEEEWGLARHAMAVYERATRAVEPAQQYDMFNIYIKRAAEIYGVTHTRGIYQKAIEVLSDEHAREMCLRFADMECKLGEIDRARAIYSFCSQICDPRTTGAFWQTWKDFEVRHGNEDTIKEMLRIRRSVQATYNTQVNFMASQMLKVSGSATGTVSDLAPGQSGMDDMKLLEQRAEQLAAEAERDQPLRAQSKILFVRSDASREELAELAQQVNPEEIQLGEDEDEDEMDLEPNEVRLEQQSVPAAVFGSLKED
Sequence of UniProt Q9UHN1 (Q9UHN1 whole entry): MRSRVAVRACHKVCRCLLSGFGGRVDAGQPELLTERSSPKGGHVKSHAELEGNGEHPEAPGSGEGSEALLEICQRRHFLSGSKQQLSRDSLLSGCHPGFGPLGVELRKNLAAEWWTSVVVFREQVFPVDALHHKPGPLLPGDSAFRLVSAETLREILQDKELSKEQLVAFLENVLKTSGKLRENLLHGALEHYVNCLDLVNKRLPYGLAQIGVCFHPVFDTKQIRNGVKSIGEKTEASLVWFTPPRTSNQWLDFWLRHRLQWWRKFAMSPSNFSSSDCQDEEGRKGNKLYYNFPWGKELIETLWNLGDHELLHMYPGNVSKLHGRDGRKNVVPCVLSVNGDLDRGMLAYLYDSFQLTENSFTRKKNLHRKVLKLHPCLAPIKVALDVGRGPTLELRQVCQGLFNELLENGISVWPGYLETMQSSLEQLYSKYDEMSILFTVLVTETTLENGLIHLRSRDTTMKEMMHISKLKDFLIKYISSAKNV
Sequence of UniProt O94964 (O94964 whole entry): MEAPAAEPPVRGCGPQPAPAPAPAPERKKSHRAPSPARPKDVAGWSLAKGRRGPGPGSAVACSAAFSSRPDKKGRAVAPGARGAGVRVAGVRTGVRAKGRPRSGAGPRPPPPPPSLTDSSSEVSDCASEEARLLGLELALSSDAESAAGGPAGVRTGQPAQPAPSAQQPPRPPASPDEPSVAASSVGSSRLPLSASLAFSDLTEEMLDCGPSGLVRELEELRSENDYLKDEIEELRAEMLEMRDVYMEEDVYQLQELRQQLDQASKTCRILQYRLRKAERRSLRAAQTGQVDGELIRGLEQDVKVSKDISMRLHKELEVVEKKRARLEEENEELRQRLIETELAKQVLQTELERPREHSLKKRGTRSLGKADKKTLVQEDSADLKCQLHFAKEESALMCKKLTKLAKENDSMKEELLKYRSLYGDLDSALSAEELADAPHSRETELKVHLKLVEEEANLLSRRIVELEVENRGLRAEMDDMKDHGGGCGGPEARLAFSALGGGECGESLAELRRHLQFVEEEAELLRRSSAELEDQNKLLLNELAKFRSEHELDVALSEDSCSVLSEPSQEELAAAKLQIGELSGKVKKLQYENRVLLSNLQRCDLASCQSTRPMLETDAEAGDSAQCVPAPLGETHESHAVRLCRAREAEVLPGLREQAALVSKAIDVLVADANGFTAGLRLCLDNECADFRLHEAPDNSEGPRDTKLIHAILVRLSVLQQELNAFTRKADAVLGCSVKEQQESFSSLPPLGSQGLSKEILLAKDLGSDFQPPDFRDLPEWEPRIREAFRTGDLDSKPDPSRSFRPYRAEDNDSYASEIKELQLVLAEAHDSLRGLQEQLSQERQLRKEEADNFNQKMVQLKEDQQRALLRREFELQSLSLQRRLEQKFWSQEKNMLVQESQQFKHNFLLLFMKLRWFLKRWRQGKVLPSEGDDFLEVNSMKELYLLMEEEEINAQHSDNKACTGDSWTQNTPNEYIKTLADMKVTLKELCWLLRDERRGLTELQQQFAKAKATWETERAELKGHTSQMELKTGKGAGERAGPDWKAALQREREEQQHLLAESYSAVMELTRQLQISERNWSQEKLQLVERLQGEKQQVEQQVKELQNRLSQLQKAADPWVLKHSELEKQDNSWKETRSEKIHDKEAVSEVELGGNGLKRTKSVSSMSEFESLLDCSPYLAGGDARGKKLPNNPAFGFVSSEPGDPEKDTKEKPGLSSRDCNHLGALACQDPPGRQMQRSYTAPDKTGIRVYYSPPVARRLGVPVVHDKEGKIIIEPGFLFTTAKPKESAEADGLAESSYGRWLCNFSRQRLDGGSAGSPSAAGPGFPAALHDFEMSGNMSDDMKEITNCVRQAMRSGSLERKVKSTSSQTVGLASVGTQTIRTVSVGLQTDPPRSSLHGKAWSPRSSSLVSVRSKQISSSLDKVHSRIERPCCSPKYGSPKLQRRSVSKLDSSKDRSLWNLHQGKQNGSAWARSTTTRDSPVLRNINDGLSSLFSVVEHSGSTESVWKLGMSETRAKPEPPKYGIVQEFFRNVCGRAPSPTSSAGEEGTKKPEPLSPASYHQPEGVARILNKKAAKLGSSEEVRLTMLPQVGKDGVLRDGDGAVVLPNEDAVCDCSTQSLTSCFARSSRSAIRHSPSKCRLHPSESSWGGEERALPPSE
Sequence of UniProt Q9BT67 (Q9BT67 whole entry): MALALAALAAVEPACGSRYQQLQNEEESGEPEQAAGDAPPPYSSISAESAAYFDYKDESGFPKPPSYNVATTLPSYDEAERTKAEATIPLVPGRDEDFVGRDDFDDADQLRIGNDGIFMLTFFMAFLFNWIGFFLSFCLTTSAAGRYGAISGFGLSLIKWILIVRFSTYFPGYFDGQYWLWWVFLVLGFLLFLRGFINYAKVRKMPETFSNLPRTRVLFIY
Sequence of UniProt Q9NRG0 (Q9NRG0 whole entry): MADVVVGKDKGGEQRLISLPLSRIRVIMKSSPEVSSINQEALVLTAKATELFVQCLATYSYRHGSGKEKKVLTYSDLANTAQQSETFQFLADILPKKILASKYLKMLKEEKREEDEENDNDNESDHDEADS

Target | thermal stability z-score (potassium arsenate) | thermal stability z-score (lipoamide; [1]) | thermal stability z-score (lipoamide; arsenate co-treatment: none)
NDFIP1 (UniProt Q9BT67) | 1.41 | 1.07 | 0.0758
CCDC186 (UniProt Q7Z3E2) | 0.0522 | -0.0502 | -0.00496
ARF4 (UniProt P18085) | -0.609 | -0.409 | -0.09
PLGRKT (UniProt Q9HBL7) | 0.783 | 0.684 | 0.147
KIF22 (UniProt Q14807) | -0.386 | -0.451 | 0.147
EMC1 (UniProt Q8N766) | 0.695 | -2.01 | -1.43
SCP2 (UniProt P22307) | -0.257 | 0.374 | 0.0992
LSM6 (UniProt P62312) | -0.309 | 0.895 | 0.267
SARS2 (UniProt Q9NP81) | -0.442 | -0.781 | -0.828
CHRAC1 (UniProt Q9NRG0) | -0.28 | -0.123 | 0.285
HSPBP1 (UniProt Q9NZL4) | 0.872 | -0.134 | -0.197
TBK1 (UniProt Q9UHD2) | -0.00763 | -0.607 | -0.189
ATF6 (UniProt P18850) | -0.177 | -0.0284 | -0.0127
EGFL7 (UniProt Q9UHF1) | -0.108 | 0.126 | 0.102
GPATCH8 (UniProt Q9UKJ3) | -0.238 | 1.48 | 0.761
PARL (UniProt Q9H300) | 0.57 | -0.134 | -0.733
RNGTT (UniProt O60942) | -0.0249 | -0.0218 | 0.0305
PTPRM (UniProt P28827) | 0.672 | 0.782 | 1.16
POLDIP3 (UniProt Q9BY77) | -1.86 | -0.257 | 0.0404
POLG2 (UniProt Q9UHN1) | -0.833 | 0.00241 | -0.266
SFXN3 (UniProt Q9BWM7) | 0.16 | 0.507 | 0.279
NPR3 (UniProt P17342) | -0.486 | 0.2 | -0.339
FOXO3 (UniProt O43524) | 0.19 | -0.0135 | -0.184
ACO2 (UniProt Q99798) | -1.08 | -0.488 | -0.402
RPS3A (UniProt P61247) | -0.818 | 0.23 | 0.114
USE1 (UniProt Q9NZ43) | 1.13 | 0.872 | 0.37
PPM1L (UniProt Q5SGD2) | -0.192 | -0.022 | -0.095
SOGA1 (UniProt O94964) | -0.097 | 0.0497 | -0.0282

Target | thermal stability z-score (potassium arsenate) | thermal stability z-score (lipoamide; [1]) | thermal stability z-score (lipoamide; arsenate co-treatment: none)
ALDH9A1 (UniProt P49189) | -1.15 | -0.257 | -0.212
CCDC191 (UniProt Q8NCU4) | -0.189 | 0.286 | -0.0683
TRAPPC8 (UniProt Q9Y2L5) | 0.311 | 0.257 | 0.348
GTF2H3 (UniProt Q13889) | -0.106 | 0.0675 | -0.229
TAOK2 (UniProt Q9UL54) | -0.0359 | -0.161 | -0.0781
MRPL38 (UniProt Q96DV4) | 0.134 | -0.319 | -0.0312
PKD2 (UniProt Q13563) | 0.16 | 0.277 | 0.13
EEFSEC (UniProt P57772) | -0.884 | -0.771 | 0.715
PEX16 (UniProt Q9Y5Y5) | -0.441 | -1.58 | -0.719
NFX1 (UniProt Q12986) | -3.38 | -1.53 | -1.5
SUPT16H (UniProt Q9Y5B9) | 0.819 | 1.01 | 1.11
MPZL2 (UniProt O60487) | -0.0559 | 0.503 | -0.0637
ALDH3B1 (UniProt P43353) | 1.26 | -0.215 | 0.338
MLLT1 (UniProt Q03111) | -0.0158 | -0.182 | -0.111
APBB2 (UniProt Q92870) | 0.0987 | 0.078 | -0.11
XAB2 (UniProt Q9HCS7) | 0.256 | -0.104 | -0.113
TCF3 (UniProt P15923) | -0.203 | -0.098 | -0.0941
RSBN1L (UniProt Q6PCB5) | 0.113 | -0.0324 | -0.225
PDE8B (UniProt O95263) | 0.228 | -0.563 | 0.202
MSTO1 (UniProt Q9BUK6) | -0.742 | 0.101 | -0.0527
ATAD1 (UniProt Q8NBU5) | 0.641 | 0.216 | 0.454
NRF1 (UniProt Q16656) | 0.311 | -0.282 | -0.0693
SMYD2 (UniProt Q9NRG4) | 1.28 | 0.863 | 0.716
SDR39U1 (UniProt Q9NRG7) | 0.471 | 0.717 | 0.0552
ROCK1 (UniProt Q13464) | -0.122 | -0.134 | 0.211
EIF2AK3 (UniProt Q9NZJ5) | -0.317 | -0.372 | -0.109
RBM12 (UniProt Q9NTZ6) | -0.506 | -0.205 | -0.19

— the supplement of paper PMC12463676, “Small-molecule dissolution of stress granules by redox modulation benefits ALS models” (Nature Chemical Biology, 2025)
